Reference: patent US20260022096A1, “NOVEL SULFONAMIDES AND THEIR USE AS NEUROPROTECTIVE AND/OR NEURORESTORATIVE AGENTS” (GENECODE, priority 2022, published 2026)
pEC50: −log10 of the molar value.

These molecules were tested against T1, GFRα1-RET (Homo sapiens, UniProt P56159) (assay: Elk1 reporter-gene (luciferase) assay in cells expressing GFRα1-RET). Conditions: MG87 murine fibroblasts stably transfected with PathDetect Elk-1, GFRα1 and RET, 6 concentrations, agonist/activator activity.
T1 construct: expressed in transfected cells; host or cells: MG87 murine fibroblasts, stably transfected
T1 sequence (P56159 25-429 limits assumed): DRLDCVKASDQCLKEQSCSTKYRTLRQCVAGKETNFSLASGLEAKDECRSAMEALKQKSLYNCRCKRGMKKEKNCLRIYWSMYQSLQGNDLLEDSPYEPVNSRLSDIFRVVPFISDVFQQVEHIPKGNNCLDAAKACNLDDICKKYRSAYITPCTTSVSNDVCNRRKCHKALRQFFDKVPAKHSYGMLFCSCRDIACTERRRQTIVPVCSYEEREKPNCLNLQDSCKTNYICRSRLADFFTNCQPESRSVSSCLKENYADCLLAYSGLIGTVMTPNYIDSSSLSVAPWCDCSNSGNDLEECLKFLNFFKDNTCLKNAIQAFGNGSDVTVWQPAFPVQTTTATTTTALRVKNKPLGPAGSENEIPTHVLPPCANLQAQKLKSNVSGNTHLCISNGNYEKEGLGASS
Format: cell-based
Procedure: For ECso determination, a dose-response test was performed using 6 concentrations of each tested compound. Dose-response curves were fitted using the sigmoidal dose-response (variable slope) analysis in GraphPad Prism program (Graph Pad Inc) and ECso of agonist/activator activity was calculated. Dose-response experiments were all performed in duplicate, two times independently.
In the case of `O=C(c1ccc(F)cc1Cl)N1C[C@H]2CC[C@@H](C1)N2c1cc(S(=O)(=O)N2CCC(CCc3ccccc3)CC2)ccc1OCCO` [compound 077, (2-chloro-4-fluoro-phenyl)-[(1S,5R)-8-[2-(2-hydroxyethoxy)-5-[[4-(2-phenylethyl)-1-piperidyl]sulfonyl]phenyl]-3,8-diazabicyclo[3.2.1]octan-3-yl]methanone], the pEC50 was greater than 6.00.
`O=C(c1ccc(F)cc1Cl)N1C[C@H]2CC[C@@H](C1)N2c1cc(S(=O)(=O)N2CCN(CCc3ccc(Cl)cc3)CC2)ccc1OCCO` [compound 078, (2-chloro-4-fluoro-phenyl)-[(1S,5R)-8-[5-[4-[2-(4-chlorophenyl)ethyl]piperazin-1-yl]sulfonyl-2-(2-hydroxyethoxy)phenyl]-3,8-diazabicyclo[3.2.1]octan-3-yl]methanone] showed a pEC50 greater than 6.00.
Molecule `CCCN(C)S(=O)(=O)c1ccc(C2CC2)c(N2[C@@H]3CC[C@H]2CN(C(=O)c2ccc(F)cc2Cl)C3)c1` [compound 079] has a pEC50 greater than 6.00.
For `O=C(c1ccc(F)cc1Cl)N1C[C@H]2CC[C@@H](C1)N2c1cc(S(=O)(=O)N2CCC(c3ccccc3)CC2)ccc1C1CC1` [compound 080, (2-chloro-4-fluoro-phenyl)-[(1S,5R)-8-[2-cyclopropyl-5-[(4-phenyl-1-piperidyl)sulfonyl]phenyl]-3,8-diazabicyclo[3.2.1]octan-3-yl]methanone], the pEC50 was greater than 6.00.
`O=C(c1ccc(F)cc1Cl)N1C[C@H]2CC[C@@H](C1)N2c1cc(S(=O)(=O)N2CCC(c3ccccc3)CC2)ccc1-c1c[nH]cn1` [compound 081] was tested, and the pEC50 was greater than 6.00.
Molecule `Cn1cnc(-c2ccc(S(=O)(=O)N3CCC(c4ccccc4)CC3)cc2N2[C@@H]3CC[C@H]2CN(C(=O)c2ccc(F)cc2Cl)C3)c1` [compound 082, (2-chloro-4-fluoro-phenyl)-[(1S,5R)-8-[2-(1-methylimidazol-4-yl)-5-[(4-phenyl-1-piperidyl)sulfonyl]phenyl]-3,8-diazabicyclo[3.2.1]octan-3-yl]methanone] has a pEC50 of 5.00 to 6.00.
`O=C(c1ccc(F)cc1Cl)N1C[C@H]2CC[C@@H](C1)N2c1cc(S(=O)(=O)N2CCC(c3ccccc3)CC2)cc(F)c1O` [compound 083, (2-chloro-4-fluoro-phenyl)-[(1S,5R)-8-[3-fluoro-2-hydroxy-5-[(4-phenyl-1-piperidyl)sulfonyl]phenyl]-3,8-diazabicyclo[3.2.1]octan-3-yl]methanone] showed a pEC50 greater than 6.00.
`O=C(c1ccc(F)cc1Cl)N1C[C@H]2CC[C@@H](C1)N2c1cc(S(=O)(=O)N2CCC(c3ccc(F)cc3)CC2)cc(F)c1O` [compound 084, (2-chloro-4-fluoro-phenyl)-[(1S,5R)-8-[3-fluoro-5-[[4-(4-fluorophenyl)-1-piperidyl]sulfonyl]-2-hydroxy-phenyl]-3,8-diazabicyclo[3.2.1]octan-3-yl]methanone] gave a pEC50 greater than 6.00.
`CC(C)(C)NS(=O)(=O)c1cc(F)c(O)c(N2[C@@H]3CC[C@H]2CN(C(=O)c2ccc(F)cc2Cl)C3)c1` [compound 085, N-tert-butyl-3-[(1S,5R)-3-(2-chloro-4-fluoro-benzoyl)-3,8-diazabicyclo[3.2.1]octan-8-yl]-5-fluoro-4-hydroxy-benzenesulfonamide] was tested, and the pEC50 was greater than 6.00.
`CN(CC1CC1)S(=O)(=O)c1cc(F)c(O)c(N2[C@@H]3CC[C@H]2CN(C(=O)c2ccc(F)cc2Cl)C3)c1` [compound 086, 3-[(1S,5R)-3-(2-chloro-4-fluoro-benzoyl)-3,8-diazabicyclo[3.2.1]octan-8-yl]-N-(cyclopropylmethyl)-5-fluoro-4-hydroxy-N-methyl-benzenesulfonamide] gave a pEC50 greater than 6.00.
Work on `O=C(c1ccc(F)cc1Cl)N1C[C@H]2CC[C@@H](C1)N2c1cc(S(=O)(=O)N2CCC(c3ccccc3)CC2)cc(C(F)(F)F)c1O` [compound 087] yielded a pEC50 greater than 6.00.
For `O=C(c1ccc(F)cc1Cl)N1C[C@H]2CC[C@@H](C1)N2c1cc(S(=O)(=O)N2CCC(c3ccc(F)cc3)CC2)cc(C(F)(F)F)c1O` [compound 088, (2-chloro-4-fluoro-phenyl)-[(1S,5R)-8-[5-[[4-(4-fluorophenyl)-1-piperidyl]sulfonyl]-2-hydroxy-3-(trifluoromethyl)phenyl]-3,8-diazabicyclo[3.2.1]octan-3-yl]methanone], the pEC50 was greater than 6.00.
`CC(C)(C)NS(=O)(=O)c1cc(N2[C@@H]3CC[C@H]2CN(C(=O)c2ccc(F)cc2Cl)C3)c(O)c(C(F)(F)F)c1` [compound 089] was tested, and the pEC50 was 5.00 to 6.00.
In the case of `Cc1cc(S(=O)(=O)N2CCC(c3ccccc3)CC2)cc(N2[C@@H]3CC[C@H]2CN(C(=O)c2ccc(F)cc2Cl)C3)c1O` [compound 090, (2-chloro-4-fluoro-phenyl)-[(1S,5R)-8-[2-hydroxy-3-methyl-5-[(4-phenyl-1-piperidyl)sulfonyl]phenyl]-3,8-diazabicyclo[3.2.1]octan-3-yl]methanone], the pEC50 was greater than 6.00.
`Cc1cc(S(=O)(=O)N2CCC(c3ccc(F)cc3)CC2)cc(N2[C@@H]3CC[C@H]2CN(C(=O)c2ccc(F)cc2Cl)C3)c1O` [compound 091, (2-chloro-4-fluoro-phenyl)-[(1S,5R)-8-[5-[[4-(4-fluorophenyl)-1-piperidyl]sulfonyl]-2-hydroxy-3-methyl-phenyl]-3,8-diazabicyclo[3.2.1]octan-3-yl]methanone] was tested, and the pEC50 was greater than 6.00.
Work on `Cc1cc(S(=O)(=O)N(C)CC2CC2)cc(N2[C@@H]3CC[C@H]2CN(C(=O)c2ccc(F)cc2Cl)C3)c1O` [compound 092, 3-[(1S,5R)-3-(2-chloro-4-fluoro-benzoyl)-3,8-diazabicyclo[3.2.1]octan-8-yl]-N-(cyclopropylmethyl)-4-hydroxy-N,5-dimethyl-benzenesulfonamide] yielded a pEC50 greater than 6.00.
Work on `Cc1cc(S(=O)(=O)NC(C)(C)C)cc(N2[C@@H]3CC[C@H]2CN(C(=O)c2ccc(F)cc2Cl)C3)c1O` [compound 093] yielded a pEC50 greater than 6.00.
For `CCc1cc(S(=O)(=O)N2CCC(c3ccccc3)CC2)cc(N2[C@@H]3CC[C@H]2CN(C(=O)c2ccc(F)cc2Cl)C3)c1O` [compound 094, (2-chloro-4-fluoro-phenyl)-[(1S,5R)-8-[3-ethyl-2-hydroxy-5-[(4-phenyl-1-piperidyl)sulfonyl]phenyl]-3,8-diazabicyclo[3.2.1]octan-3-yl]methanone], the pEC50 was greater than 6.00.
With `CC(C)(C)NS(=O)(=O)c1cc(Cl)c(O)c(N2[C@@H]3CC[C@H]2CN(C(=O)c2ccc(F)cc2Cl)C3)c1` [compound 095, N-tert-butyl-3-chloro-5-[(1S,5R)-3-(2-chloro-4-fluoro-benzoyl)-3,8-diazabicyclo[3.2.1]octan-8-yl]-4-hydroxy-benzenesulfonamide] the pEC50 was greater than 6.00.
Molecule `CN(CC1CC1)S(=O)(=O)c1cc(Cl)c(O)c(N2[C@@H]3CC[C@H]2CN(C(=O)c2ccc(F)cc2Cl)C3)c1` [compound 096, 3-chloro-5-[(1S,5R)-3-(2-chloro-4-fluoro-benzoyl)-3,8-diazabicyclo[3.2.1]octan-8-yl]-N-(cyclopropylmethyl)-4-hydroxy-N-methyl-benzenesulfonamide] has a pEC50 greater than 6.00.
`O=C(c1ccc(F)cc1Cl)N1C[C@H]2CC[C@@H](C1)N2c1cc(S(=O)(=O)N2CCC(F)CC2)cc(Cl)c1O` [compound 097, (2-chloro-4-fluoro-phenyl)-[(1S,5R)-8-[3-chloro-5-[(4-fluoro-1-piperidyl)sulfonyl]-2-hydroxy-phenyl]-3,8-diazabicyclo[3.2.1]octan-3-yl]methanone] was tested, and the pEC50 was greater than 6.00.
In the case of `O=C(c1ccc(F)cc1Cl)N1C[C@H]2CC[C@@H](C1)N2c1cc(S(=O)(=O)N2CCC(c3ccccc3)CC2)cc(Cl)c1O` [compound 098], the pEC50 was greater than 6.00.
